This is an account of results in paper PMC9197168, “Structural Characterization of Mycobacterium abscessus Phosphopantetheine Adenylyl Transferase Ligand Interactions: Implications for Fragment-Based Drug Design” (Frontiers in Molecular Biosciences, 2022).

Molecules are shown by their SMILES. Like-named read-outs stand apart in the source and are kept apart here.

In one experiment the target is M. abscessus PPAT (Mycobacteroides abscessus, UniProt B1MDL6). Format: binding, Mycobacterium abscessus. The following applies: Table 1; 10 μM PPAT, 5 mM compound, 5% DMSO.
A further experiment deals with Mab PPAT (Mycobacteroides abscessus, UniProt B1MDL6). Kind of experiment: Isothermal titration calorimetry (ITC) on Mab PPAT. The experiment is classed as binding, Mycobacterium abscessus. The conditions noted are these: for Kd: ITC. How it is done:
ITC experiments were done using an ITC200 (MicroCal) instrument. The Mab PPAT protein for ITC was dialysed overnight at 4°C in storage buffer (50 mM Tris-HCl pH 8.0, 150 mM NaCl) the same buffer was used for preparing the ligand solutions. The protein and ligands/fragments were used at a concentration of 72 μM and 1–5 mM, respectively. ITC recorded for ATP was done in buffer: 50 mM Hepes pH 8.0, 150 mM NaCl, 5 mM MgCl2, at Mab PPAT concentration of 200 uM and 3 mM ATP. Buffer components and other constituents like DMSO were kept constant in both protein and ligand solutions. Ligands to buffer titrations were subtracted in all cases and experiments were repeated at least twice. Data were analysed using the Origin software (OriginLab, Northampton, MA, United States).

For experiment [1], the system named is M. abscessus ATCC19977 whole-cell cultures. The experiment can be described thus: Whole-cell luciferase-reporter based luminescence assay. Also noted: species or system Mycobacterium abscessus. The conditions noted are these: up to a concentration of 200 µM; in comparison to positive control Amikacin; data not shown.
For the next experiment, the target named is Mtb PPAT. Also noted: method as in El Bakali et al., 2020. The conditions noted are these: ref El Bakali et al., 2020; cited from earlier work.
The mark [2] stands for this setting: Mab PPAT, 50 mM Tris-HCl pH 8.0, 150 mM NaCl, read-out: Kd.
[3] abbreviates: Mab PPAT 72 μM, 50 mM Tris-HCl pH 8.0, 150 mM NaCl, read-out: Kd (Mab PPAT).

Sequence of M. abscessus PPAT (B1MDL6 whole entry): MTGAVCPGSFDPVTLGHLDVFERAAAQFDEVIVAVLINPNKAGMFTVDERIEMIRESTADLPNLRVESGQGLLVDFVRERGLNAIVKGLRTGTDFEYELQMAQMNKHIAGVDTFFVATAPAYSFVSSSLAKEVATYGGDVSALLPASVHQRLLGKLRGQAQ
Sequence of Mab PPAT (B1MDL6 whole entry, the tested form may be a part): as the sequence (B1MDL6 whole entry) above

In the case of `O=C(O)c1cc2cc(F)ccc2[nH]1` [Fragment 7], the ΔΤm entry on M. abscessus PPAT is “+3.5 °C”.

`O=C(O)c1ccccc1C(=O)c1ccc(Cl)c([N+](=O)[O-])c1` [Fragment 6]: the ΔΤm result at M. abscessus PPAT is “+4.5 °C”. Same read-out and setting: then `O=C(O)c1ccc2[nH]nc(Br)c2c1` [Fragment 2], with “+12.5 °C”; and `Cc1cn(CCC(=O)O)c2ccccc12` [Fragment 3], with “+0.5 °C”; and `O=C(O)c1ccc2cc(F)ccc2c1` [Fragment 8], with “+2.9 °C”. As to `N#Cc1ccc(Cl)cc1N` [Fragment 13], the ΔΤm result at M. abscessus PPAT was “+1.5 °C”.

On to `O=C(O)c1cc2ccccc2cc1O` [Fragment 11], for which the ΔΤm result at M. abscessus PPAT was “+2.0 °C”. With `Cc1ccc2oc(=O)cc(O)c2c1` [Fragment 15], the ΔΤm entry on M. abscessus PPAT was “+0.5 °C”.

`O=C(O)CCc1c[nH]c2ccccc12` [Fragment 5]: the equilibrium dissociation constant (Kd) on Mab PPAT (setting [2]) came to 3200 ± 20 µM. The ΔΤm result on M. abscessus PPAT is “+3.5 °C”. On to `O=C(O)C(O)Cc1c[nH]c2ccccc12` (stereo not shown) [Fragment 12], for which, at M. abscessus PPAT, the ΔΤm result was “+1.5 °C”. On the same count and under the same terms, for `O=C(O)CCn1ccc2ccccc21` [Fragment 14] the value was “+1 °C”; for `Cc1ccc(C(=O)O)c(C(=O)O)n1` [Fragment 10], “+2.0 °C”. On to `Cc1c(C(=O)O)cnn1-c1ccccc1` [Fragment 1], for which, on Mab PPAT (setting [2]), the dissociation constant (Kd) was 540 ± 20 µM. Moreover, the ΔΤm entry at M. abscessus PPAT was “+6 °C”. For `Nc1ncnc2c1ncn2[C@@H]1O[C@H](COP(=O)(O)OP(=O)(O)OP(=O)(O)O)[C@@H](O)[C@H]1O` [ATP, Adenosine 5′ triphosphate, reference compound], the Kd on Mab PPAT (50 mM Hepes pH 8.0, 150 mM NaCl, 5 mM MgCl2, Mab PPAT 200 uM, 3 mM ATP, read-out: Kd) is 20.1 ± 3.3 µM. As to `O=C(O)c1cnn(-c2ccccc2)c1OCCCc1c[nH]c2ccccc12` [Compound 20], the equilibrium dissociation constant (Kd) on Mab PPAT (setting [3]) is 3.2 ± 0.8 µM; at Mtb PPAT, 15 ± 4 µM. Also, at Mab PPAT (Mab PPAT versus Mtb PPAT (Kd 15 ± 4 µM)), the “binding affinity on Mab PPAT relative to that on Mtb PPAT” value is ~5 fold. The “affinity relative to affinity of Mab PPAT for the substrate ATP” value on Mab PPAT (Mab PPAT, compound versus ATP) was “≈ 7 fold”. Moreover, the “cellular activity on whole-cell cultures” value in experiment [1] was “low cellular activity”. On to `CC(C)(COP(=O)(O)OP(=O)(O)OC[C@H]1O[C@@H](n2cnc3c(N)ncnc32)[C@H](O)[C@@H]1OP(=O)(O)O)[C@@H](O)C(=O)NCCC(=O)NCCS` [Coenzyme A, reference compound], for which, on Mab PPAT (setting [3]), the Kd stood at 8.2 ± 1.1 µM. For the compound `O=C(O)C(O)c1cccc(Oc2ccccc2)c1` (stereo not shown) [Fragment 4], the ΔΤm entry at M. abscessus PPAT is “+2.5 °C”.

On to `O=C(O)Cn1ccc2ccccc21` [Fragment 16], for which, on M. abscessus PPAT, the ΔΤm was -0.5 °C. On the same count and under the same terms, for `O=C(O)Cc1ccc2ccccc2c1` [Fragment 9] the value was “+2.3 °C”.
